Laboratory results as given in US11345756B2, “CCR3 inhibition for ocular angiogenesis and macular degeneration” (University of Kentucky Research Foundation, priority 2006, dated 2022).

System: CNV (choroidal neovascularization)
Assay: Laser-induced CNV volume, confocal evaluation of isolectin B4 stained RPE-choroid flatmounts
Format: in vivo
Settings: C57BL/6J mice, laser injury, blockade of CCR3 ligand by neutralizing antibody injected into the vitreous humor; compared to control antibodies, all Ps<0.001
Protocol: Laser photocoagulation (532 nm, 200 mW, 100 ms, 75 μm) (OCULIGHT™ GL, Index Corporation) was performed (volume studies: 3/eye; protein analyses/flow cytometry: 12/eye) on both eyes of each animal to induce CNV (choroidal neovascularization). CNV volumes were measured by scanning laser confocal microscope (TCS SP, Leica) with 0.5% FITC-Griffonia simplicifolia Isolectin B4 (Vector Laboratories). CNV was induced by laser injury in C57BL/6J and Ccr3^−/− mice and volumes measured 7 days later by confocal evaluation of Griffonia simplicifolia Isolectin B4 staining of RPE-choroid flatmounts. Neutralizing antibodies (Ab) against CCR3, eotaxin (CCL-11), eotaxin-2 (CCL-24), RANTES, MCP-3 or control goat IgG or rat IgG2a were injected into the vitreous humor following injury.
Because the probability of each laser lesion developing CNV is influenced by the group to which it belongs, the mouse, the eye, and the laser spot, the mean lesion volumes were compared using a linear mixed model with a split plot repeated measures design. The whole plot factor was the genetic group to which the animal belonged while the split plot factor was the eye. Statistical significance was determined at the 0.05 level. Post hoc comparison of means was constructed with a Bonferroni adjustment for multiple comparisons.

eotaxin
suppression of CNV: 45%
